Earlier results, collected in publication PMC9516332 (Frontiers in Oncology, 2022).
Read-outs that look alike come from different tables or passages of the source.

Assays:
[1] = biological target: panel of 255 wild-type kinases (Homo sapiens, UniProt P17252); conditions: kinase PKCα, 1 µmol/L single concentration, cited from earlier work
[2] = biological target: panel of 255 wild-type kinases (Homo sapiens, UniProt P31749); conditions: AKT1 kinase assay, 1 µmol/L single concentration, cited from earlier work
[3] = biological target: panel of 255 wild-type kinases (Homo sapiens, UniProt Q13131); conditions: AMPKα1/β1/γ1 kinase assay, 1 µmol/L single concentration, cited from earlier work
[4] = biological target: panel of 255 wild-type kinases (Homo sapiens, UniProt Q13177); conditions: PAK2, 1 µmol/L single concentration, cited from earlier work
[5] = biological target: panel of 255 wild-type kinases (Homo sapiens, UniProt Q13554); conditions: CaMK2β kinase assay, 1 µmol/L single concentration, cited from earlier work
[6] = biological target: panel of 255 wild-type kinases (Homo sapiens, UniProt Q15349); conditions: kinase RSK3, 1 µmol/L single concentration, cited from earlier work
[7] = biological target: panel of 255 wild-type kinases (Homo sapiens, UniProt Q16512); conditions: kinase PKN1, 1 µmol/L single concentration, cited from earlier work
[8] = biological target: panel of 255 wild-type kinases (Homo sapiens, UniProt Q9HCP0); conditions: kinase CK1γ1, 1 µmol/L single concentration, cited from earlier work
[9] = biological target: T1, panel of 255 wild-type kinases (Homo sapiens, UniProt Q9NZJ5); conditions: kinase PEK, 1 µmol/L single concentration, cited from earlier work
T1 sequence (Q9NZJ5 30-1116): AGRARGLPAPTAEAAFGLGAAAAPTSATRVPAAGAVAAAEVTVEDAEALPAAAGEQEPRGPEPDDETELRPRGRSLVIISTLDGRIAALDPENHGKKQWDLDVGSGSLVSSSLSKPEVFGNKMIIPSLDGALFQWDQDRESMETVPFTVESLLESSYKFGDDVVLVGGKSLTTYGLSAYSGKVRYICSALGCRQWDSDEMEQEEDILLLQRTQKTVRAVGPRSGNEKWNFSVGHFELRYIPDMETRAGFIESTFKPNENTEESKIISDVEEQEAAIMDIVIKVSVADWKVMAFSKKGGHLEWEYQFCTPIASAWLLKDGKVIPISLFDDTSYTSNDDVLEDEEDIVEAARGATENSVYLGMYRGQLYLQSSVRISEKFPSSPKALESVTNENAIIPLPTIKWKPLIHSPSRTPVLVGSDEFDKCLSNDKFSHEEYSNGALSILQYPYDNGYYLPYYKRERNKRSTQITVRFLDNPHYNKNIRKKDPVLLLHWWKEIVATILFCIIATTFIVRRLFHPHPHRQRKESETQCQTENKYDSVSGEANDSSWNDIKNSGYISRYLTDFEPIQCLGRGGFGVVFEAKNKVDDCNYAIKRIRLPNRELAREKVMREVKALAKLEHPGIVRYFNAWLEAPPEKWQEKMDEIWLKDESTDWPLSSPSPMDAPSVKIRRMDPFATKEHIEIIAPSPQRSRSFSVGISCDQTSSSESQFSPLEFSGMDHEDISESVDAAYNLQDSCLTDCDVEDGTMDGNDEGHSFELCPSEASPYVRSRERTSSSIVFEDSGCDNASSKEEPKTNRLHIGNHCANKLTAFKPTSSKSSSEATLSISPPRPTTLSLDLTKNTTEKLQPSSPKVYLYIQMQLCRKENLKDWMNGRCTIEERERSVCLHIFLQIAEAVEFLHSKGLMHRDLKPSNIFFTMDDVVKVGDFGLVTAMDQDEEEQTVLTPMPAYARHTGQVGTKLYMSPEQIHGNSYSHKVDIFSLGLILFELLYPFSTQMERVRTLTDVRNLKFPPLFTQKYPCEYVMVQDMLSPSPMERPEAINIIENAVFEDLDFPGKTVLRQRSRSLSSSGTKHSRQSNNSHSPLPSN

[10] = biological target: panel of 255 wild-type kinases (Homo sapiens, UniProt Q9UQM7); conditions: CaMK2α kinase assay, 1 µmol/L single concentration, cited from earlier work
[11] = biological target: panel of 255 wild-type kinases (Homo sapiens, UniProt Q9Y463); conditions: kinase DYRK1B, 1 µmol/L single concentration, cited from earlier work
[12] = ref DOI: 10.1158/1535-7163.MCT-18-0877
[13] = ref DOI: 10.1371/journal.pone.0092146

Compound | %-inhibition at 1 µmol/L, PKCα [1, 13] | %-inhibition AKT1 [2, 13] | %-inhibition AMPKα1/β1/γ1 [3, 13] | %-inhibition, PAK2 [4, 13] | %-inhibition CaMK2β [5, 13] | %-inhibition at 1 µmol/L, RSK3 [6, 13] | %-inhibition at 1 µmol/L, PKN1 [7, 13] | %-inhibition at 1 µmol/L, CK1γ1 [8, 13] | %-inhibition at 1 µmol/L, PEK [9, 13] | %-inhibition CaMK2α [10, 13] | %-inhibition at 1 µmol/L, DYRK1B [11, 13] | also measured
C=CC(=O)Nc1cc(Nc2nccc(-c3cn(C)c4ccccc34)n2)c(OC)cc1N(C)CCN(C)C [osimertinib] |  |  |  |  |  |  |  |  |  |  |  | %-inhibition at 1 µmol/L, PKCα [1, 12]: 11%; %-inhibition AKT1 [2, 12]: -9%; %-inhibition AMPKα1/β1/γ1 [3, 12]: -5%; %-inhibition, PAK2 [4, 12]: -14%; %-inhibition CaMK2β [5, 12]: 5%; %-inhibition at 1 µmol/L, RSK3 [6, 12]: 53%; %-inhibition at 1 µmol/L, PKN1 [7, 12]: 14%; %-inhibition at 1 µmol/L, CK1γ1 [8, 12]: 10%; %-inhibition at 1 µmol/L, PEK [9, 12]: 7%; %-inhibition CaMK2α [10, 12]: 2%; %-inhibition at 1 µmol/L, DYRK1B [11, 12]: 5%
CC(=O)Nc1cccc(-n2c(=O)n(C3CC3)c(=O)c3c(Nc4ccc(I)cc4F)n(C)c(=O)c(C)c32)c1 [trametinib] | -5% | -3% | -12% | -9% | 0.738% | -5% | 3.71% | 0.211% | 1.13% | -1.65% | 3.34% | 
CCCS(=O)(=O)Nc1ccc(F)c(C(=O)c2c[nH]c3ncc(-c4ccc(Cl)cc4)cc23)c1F [vemurafenib] | -3.61% | -4.52% | -1.59% | 13% | -6.64% | -0.497% | -0.378% | -2% | 11% | -4.25% | -1.74% | 
